# Tested on: MRC-9 cells
# Assay: Multiplex high-content viability assessment
# Format: cell-based
# Details: 10 µM, human fibroblast
# Experimental: To assess the influence on cell health, a high-content screening in living cells called the multiplex high-content assay, as described previously by Tjaden et al., was performed.[38] In brief, HEK293T (ATCC CRL-1573) and U2OS (ATCCHTB-96) were cultured in DMEM plus L-glutamine (high glucose) supplemented by 10% FBS (Gibco) and penicillin/streptomycin (Gibco). MRC-9 fibroblasts ([…]) were cultured in EMEM plus L-glutamine supplemented by 10% FBS (Gibco) and penicillin/streptomycin (Gibco). Cells were seeded at a density of 1250 cells per well in a 384-well plate in a culture medium (cell culture microplate, PS, f-bottom, μClear, 781091, Greiner), with a volume of 50 μL per well. All outer wells were filled with 100 μL of PBS buffer (Gibco). […] The cell shape and fluorescence were measured before treatment and 12, 24, and 48 h after compound treatment using the CQ1 high-content confocal microscope (Yokogawa, Musashino, Japan). […] The compounds were tested at 1 and 10 μM, respectively. Acquired images of the cells were processed using Yokogawa CellPathfinder software (v3.04.02.02). […] Results were normalized to cells exposed to 0.1% DMSO. All compounds were tested in biological duplicates, and SEM (standard error of mean) was calculated of biological duplicates.
smiles,measurement,setting,value
CC(C)C(=O)Nc1ncc(-c2cc(C(F)F)nn2-c2c(Cl)cccc2Cl)s1 [LIMKi3],Cell count normalized to cells treated with DMSO control,"0 h, biological replicate 1",1.054
same,Cell count per well,"0 h, biological replicate 1",158
same,Population Fragmented Nuclei (%),"0 h, biological replicate 1",19.48%
same,Population Healthy Nuclei (%),"0 h, biological replicate 1",62.99%
same,Population Pyknosed Nuclei (%),"0 h, biological replicate 1",17.53%
same,Population apoptotic cell (%),"0 h, biological replicate 1",44.44%
same,Population cell that influence microtubule strucutre (%),"0 h, biological replicate 1",22.68%
same,Population with increased mitochondrial mass (%),"0 h, biological replicate 1",9.28%
same,Population with membrane disruption (%),"0 h, biological replicate 1",0.00%
same,Cell count normalized to cells treated with DMSO control,"0 h, biological replicate 2",1.02
same,Cell count per well,"0 h, biological replicate 2",182
same,Population Fragmented Nuclei (%),"0 h, biological replicate 2",18.39%
same,Population Healthy Nuclei (%),"0 h, biological replicate 2",59.77%
same,Population Pyknosed Nuclei (%),"0 h, biological replicate 2",21.84%
same,Population apoptotic cell (%),"0 h, biological replicate 2",50.00%
same,Population cell that influence microtubule strucutre (%),"0 h, biological replicate 2",38.46%
same,Population with increased mitochondrial mass (%),"0 h, biological replicate 2",6.73%
same,Population with membrane disruption (%),"0 h, biological replicate 2",4.81%
same,Cell count normalized to cells treated with DMSO control,"12 h, biological replicate 1",1.2685
same,Cell count per well,"12 h, biological replicate 1",191
same,Population Fragmented Nuclei (%),"12 h, biological replicate 1",21.91%
same,Population Healthy Nuclei (%),"12 h, biological replicate 1",61.24%
same,Population Pyknosed Nuclei (%),"12 h, biological replicate 1",16.85%
same,Population apoptotic cell (%),"12 h, biological replicate 1",40.00%
same,Population cell that influence microtubule strucutre (%),"12 h, biological replicate 1",92.66%
same,Population with increased mitochondrial mass (%),"12 h, biological replicate 1",15.60%
same,Population with membrane disruption (%),"12 h, biological replicate 1",0.92%
same,Cell count normalized to cells treated with DMSO control,"12 h, biological replicate 2",1.111
same,Cell count per well,"12 h, biological replicate 2",185
same,Population Fragmented Nuclei (%),"12 h, biological replicate 2",27.68%
same,Population Healthy Nuclei (%),"12 h, biological replicate 2",47.46%
same,Population Pyknosed Nuclei (%),"12 h, biological replicate 2",24.86%
same,Population apoptotic cell (%),"12 h, biological replicate 2",52.27%
same,Population cell that influence microtubule strucutre (%),"12 h, biological replicate 2",92.86%
same,Population with increased mitochondrial mass (%),"12 h, biological replicate 2",14.29%
same,Population with membrane disruption (%),"12 h, biological replicate 2",21.43%
same,Cell count normalized to cells treated with DMSO control,"24 h, biological replicate 1",1.273
same,Cell count per well,"24 h, biological replicate 1",192
same,Population Fragmented Nuclei (%),"24 h, biological replicate 1",24.02%
same,Population Healthy Nuclei (%),"24 h, biological replicate 1",64.25%
same,Population Pyknosed Nuclei (%),"24 h, biological replicate 1",11.73%
same,Population apoptotic cell (%),"24 h, biological replicate 1",42.86%
same,Population cell that influence microtubule strucutre (%),"24 h, biological replicate 1",93.04%
same,Population with increased mitochondrial mass (%),"24 h, biological replicate 1",32.17%
same,Population with membrane disruption (%),"24 h, biological replicate 1",1.74%
same,Cell count normalized to cells treated with DMSO control,"24 h, biological replicate 2",1.116
same,Cell count per well,"24 h, biological replicate 2",184
same,Population Fragmented Nuclei (%),"24 h, biological replicate 2",31.58%
same,Population Healthy Nuclei (%),"24 h, biological replicate 2",47.95%
same,Population Pyknosed Nuclei (%),"24 h, biological replicate 2",20.47%
same,Population apoptotic cell (%),"24 h, biological replicate 2",48.57%
same,Population cell that influence microtubule strucutre (%),"24 h, biological replicate 2",92.68%
same,Population with increased mitochondrial mass (%),"24 h, biological replicate 2",21.95%
same,Population with membrane disruption (%),"24 h, biological replicate 2",6.10%
same,Cell count normalized to cells treated with DMSO control,"48 h, biological replicate 1",1.325
same,Cell count per well,"48 h, biological replicate 1",201
same,Population Fragmented Nuclei (%),"48 h, biological replicate 1",25.53%
same,Population Healthy Nuclei (%),"48 h, biological replicate 1",63.83%
same,Population Pyknosed Nuclei (%),"48 h, biological replicate 1",10.64%
same,Population apoptotic cell (%),"48 h, biological replicate 1",70.00%
same,Population cell that influence microtubule strucutre (%),"48 h, biological replicate 1",98.33%
same,Population with increased mitochondrial mass (%),"48 h, biological replicate 1",42.50%
same,Population with membrane disruption (%),"48 h, biological replicate 1",0.83%
same,Cell count normalized to cells treated with DMSO control,"48 h, biological replicate 2",1.216
same,Cell count per well,"48 h, biological replicate 2",198
same,Population Fragmented Nuclei (%),"48 h, biological replicate 2",37.50%
same,Population Healthy Nuclei (%),"48 h, biological replicate 2",43.23%
same,Population Pyknosed Nuclei (%),"48 h, biological replicate 2",19.27%
same,Population apoptotic cell (%),"48 h, biological replicate 2",51.35%
same,Population cell that influence microtubule strucutre (%),"48 h, biological replicate 2",90.36%
same,Population with increased mitochondrial mass (%),"48 h, biological replicate 2",21.69%
same,Population with membrane disruption (%),"48 h, biological replicate 2",12.05%
